In PMC11107383, “Integrating Reinforcement Learning and Monte Carlo Tree Search for enhanced neoantigen vaccine design” (Briefings in Bioinformatics, 2024):
Entries after “also recorded” stand apart in the source; their conditions may differ. Ends that are not written are not given here.

Legend:
HLA-A^*11:01 [1] = molecular target: T1, HLA-A^*11:01 (Homo sapiens, UniProt P04439, A114D/D185E/E176A/F33Y/L180Q/S129P/T187R); experiment: Peptide competitive binding assay (FITC-labeled reference peptide KVFPKALINK, flow cytometry) in HMy2.CIR cells expressing HLA-A^*11:01; conditions: 24 h, 4°C; for shift in the fluorescence (flow cytometry): FITC-labeled reference peptide displaced; for 5 μM Inhibition (%): competitor 5 μM
HLA-A^*11:01 [2] = molecular target: T1, HLA-A^*11:01; conditions: in vitro peptide-binding assay; cited from earlier work
From the text: (§1) A peptide sequence, ELQRREVYK, originating from the E6 oncoprotein of HPV type 52, has been recognized as an HLA-A^*11:01-restricted peptide through an in vitro peptide-binding assay. […] Considering the high prevalence of HLA-A^*11:01 allele (21.143%) in the Chinese pop ...

T-cell responses = conditions: IFN-γ ELISPOT; HLA-A^*11:01 pair; cited from earlier work
From the text: as §1

[3] = FITC-labeled reference peptide KVFPKALINK 300 nM, flow cytometry

Sequence	shift in the fluorescence (flow cytometry) (HLA-A^*11:01 [1])	5 μM Inhibition (%) (HLA-A^*11:01 [1]; [3])	HLA restriction (HLA-A^*11:01 [2])	T-cell response (T-cell responses)	shift in the fluorescence (flow cytometry) (HLA-A^*11:01 [1]; listed as mutated peptide)	IC50 (HLA-A^*11:01 [1]; bracketed from 5 and 15 μM inhibition)	15 μM Inhibition (%) (HLA-A^*11:01 [1]; competitor 15 μM, FITC-labeled reference peptide KVFPKALINK 300 nM, flow cytometry)
ELQRREVYK [peptide originating from the E6 oncoprotein of HPV type 52]	does not exhibit a discernible shift; also recorded: no discernible shift	24.21%	HLA-A^*11:01-restricted	does not elicit positive T-cell responses	–	–	–
ALQRREVYK [ALQRREVYK]	leftward shift in the fluorescence intensity	44.83%	–	–	leftward shift in the fluorescence peak	5 to 15 µM	77.55%
